Measured values published in paper PMC11645656, “MRGPRX4 mediates phospho-drug associated pruritus in a humanized mouse model” (Science translational medicine, 2024).
pEC50: −log10 of the molar value. Where “and” joins values, the source holds several entries; their conditions need not be identical. Identical values can stand only once. Like-named read-outs stand apart in the source and are kept apart here.

Molecular target: T1, MRGPRX4 (S83) (Homo sapiens, UniProt Q96LA9, L83S)
T1 construct: expressed in transfected cells
T1 sequence (Q96LA9 whole entry L83S): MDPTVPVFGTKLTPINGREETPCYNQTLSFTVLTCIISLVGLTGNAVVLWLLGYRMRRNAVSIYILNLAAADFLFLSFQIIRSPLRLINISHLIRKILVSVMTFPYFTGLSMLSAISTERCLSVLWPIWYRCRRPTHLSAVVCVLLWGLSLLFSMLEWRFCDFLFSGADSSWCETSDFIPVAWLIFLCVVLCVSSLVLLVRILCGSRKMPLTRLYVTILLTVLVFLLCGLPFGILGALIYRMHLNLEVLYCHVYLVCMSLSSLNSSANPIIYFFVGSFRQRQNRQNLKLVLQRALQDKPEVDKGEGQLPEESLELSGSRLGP
Assay: EC50 determination, intracellular calcium mobilization in MRGPRX4 stably expressed HEK293 cells (FLIPR Calcium 5, Flexstation-3)
Type: cell-based
Set-up: Fig. 1D dose-response, calcium mobilization response (individual replicate) / calcium mobilization response (Fig. 1D dose-response raw data): unit not given here
Conditions: for pEC50: read-out: EC50; for Hill coefficient: dose-response curve fitting; for calcium mobilization response (Fig. 1D dose-response raw data) / Fig. 1D dose-response, calcium response at Concentration (M): individual replicate values; for Fig. 1D dose-response, calcium response at Concentration (M): propofol series
Description: HEK293 cells and MRGPRX4 stably expressed HEK293 cells were seeded in 100 μl culture media on 96-well plates at a density of 40,000 cells per well and incubated overnight. The next day, the media were replaced with a dye-loading solution from the FLIPR Calcium 5 assay kit (Molecular Devices), diluted in Hank's Balanced Salt Solution (HBSS) with 20 mM HEPES, pH 7.4. After 1 h of incubation at 37°C, cells were allowed to recover for 10 min in the dark at room temperature prior to performing intracellular calcium mobilization assay in a Flexstation-3 instrument with SoftMax®Pro 7.1 software (Molecular Devices). Serial concentrations of tested drugs were prepared in HBSS/HEPES solution at 3X concentration. […] Compounds were tested in triplicates and the signals were averaged. Responses were determined by subtracting the minimum signal (at the baseline before adding the drug) from the maximum signal (obtained after drug stimulation). Four-parameter logistic (4PL) curve fit was used to plot the dose-response curves. […] Both dose-response curve fitting and EC50s calculation are computed with GraphPad Prism software (version: 6.o or above).

## CNC[C@H](O)[C@@H](O)[C@H](O)[C@H](O)CO.CNC[C@H](O)[C@@H](O)[C@H](O)[C@H](O)CO.C[C@@H](O[C@H]1OCCN(Cc2nn(P(=O)(O)O)c(=O)[nH]2)[C@H]1c1ccc(F)cc1)c1cc(C(F)(F)F)cc(C(F)(F)F)c1 [Fosaprepitant dimeglumine]
MRGPRX4 stably expressed HEK293 cells, calcium mobilization
  pEC50: 5.15
Table S1
  Hill coefficient: 3.670

## Dexamethasone palmitate
Concentration 9.76563e-7 M
  Fig. 1D dose-response, calcium mobilization response (individual replicate): -18.225 and -22.739 and -7.984 and -16.162 and -15.021 and -13.070 and 2.408 and -2.265 and -6.745
Concentration 1.95313e-6 M
  Fig. 1D dose-response, calcium mobilization response (individual replicate): -6.511 and -7.350 and 3.472 and -4.164 and -15.203 and -5.200 and 2.167 and -2.706 and -6.484
Concentration 3.90625e-6 M
  Fig. 1D dose-response, calcium mobilization response (individual replicate): -3.747 and 10.479 and -10.773 and -3.912 and -11.558 and -2.335 and 1.476 and 2.520 and -1.305
Concentration 7.8125e-6 M
  Fig. 1D dose-response, calcium mobilization response (individual replicate): -30.862 and -16.831 and -16.502 and -2.263 and -11.827 and -17.176 and -5.630 and 3.868 and -9.469
Concentration 1.5625e-5 M
  Fig. 1D dose-response, calcium mobilization response (individual replicate): -23.657 and 30.652 and -26.797 and 1.282 and -0.449 and -0.613 and 8.674 and 6.385 and -0.252
Concentration 3.125e-5 M
  Fig. 1D dose-response, calcium mobilization response (individual replicate): 88.602 and 69.392 and 95.399 and 41.739 and 60.580 and 65.413 and 42.682 and 17.645 and 71.002
Concentration 6.25e-5 M
  Fig. 1D dose-response, calcium mobilization response (individual replicate): 155.837 and 167.386 and 158.681 and 72.199 and 72.835 and 105.522 and 59.878 and 78.793 and 128.090
Concentration 0.00025 M
  Fig. 1D dose-response, calcium mobilization response (individual replicate): 281.902 and 277.911 and 231.255 and 145.042 and 106.318 and 115.112 and 141.417 and 113.731 and 129.258
Concentration 0.0005 M
  Fig. 1D dose-response, calcium mobilization response (individual replicate): 346.180 and 361.547 and 346.996 and 139.147 and 134.114 and 120.302 and 148.855 and 141.620 and 226.966
Concentration 0.001 M
  Fig. 1D dose-response, calcium mobilization response (individual replicate): 354.688 and 329.354 and 273.082 and 127.830 and 137.045 and 134.530 and 140.483 and 130.182 and 155.284
Table S1
  Hill coefficient: 1.502

## CC[C@]1(c2ccccc2)NC(=O)N(C)C1=O [(R)-mephenytoin]
Concentration 4.88281e-7 M
  calcium mobilization response (Fig. 1D dose-response raw data): -28.494 and -0.685 and -28.419 and -1.368 and -39.430 and -16.800 and -4.015 and -27.858 and -25.726
Concentration 9.76563e-7 M
  calcium mobilization response (Fig. 1D dose-response raw data): -7.288 and -19.217 and -18.327 and -17.700 and -9.222 and -17.910 and -11.024 and -17.403 and -16.404
Concentration 1.95313e-6 M
  calcium mobilization response (Fig. 1D dose-response raw data): -4.806 and -21.809 and -22.673 and -18.368 and -20.701 and -10.218 and -45.398 and -2.556 and -1.333
Concentration 3.90625e-6 M
  calcium mobilization response (Fig. 1D dose-response raw data): -11.313 and -5.626 and -2.810 and -4.150 and -5.388 and -10.211 and -8.758 and -3.374 and -7.616
Concentration 7.8125e-6 M
  calcium mobilization response (Fig. 1D dose-response raw data): -13.282 and -38.673 and -86.390 and -55.539 and -30.274 and -52.531 and -40.546 and -63.168 and -34.632
Concentration 1.5625e-5 M
  calcium mobilization response (Fig. 1D dose-response raw data): -73.173 and -60.784 and -5.824 and -52.600 and -25.248 and -61.934 and -57.691 and -23.069 and -59.022
Concentration 3.125e-5 M
  calcium mobilization response (Fig. 1D dose-response raw data): -77.603 and -4.145 and -51.921 and -55.448 and -9.903 and -68.319 and -36.832 and -68.498 and -28.339
Concentration 6.25e-5 M
  calcium mobilization response (Fig. 1D dose-response raw data): -22.173 and -48.350 and -3.409 and -11.978 and -30.555 and -31.399 and -12.734 and -38.906 and -22.292
Concentration 0.00025 M
  calcium mobilization response (Fig. 1D dose-response raw data): -56.927 and -11.154 and -10.026 and -28.148 and -45.428 and -4.530 and -28.870 and -12.606 and -36.630
Concentration 0.0005 M
  calcium mobilization response (Fig. 1D dose-response raw data): -44.336 and -37.065 and -31.962 and -46.134 and -28.961 and -38.269 and -19.967 and -86.384 and -7.013

## CC(C)c1cccc(C(C)C)c1O[C@@H]1O[C@H](C(=O)O)[C@@H](O)[C@H](O)[C@H]1O [Propofol b-D-glucuronide]
9.76563e-7 M
  Fig. 1D dose-response, calcium response at Concentration (M): 33.404 and 17.610 and 15.299 and 5.092 and 25.748 and 35.472 and 37.279 and 14.971 and 14.062
1.95313e-6 M
  Fig. 1D dose-response, calcium response at Concentration (M): 24.553 and 28.290 and 26.471 and 25.162 and 11.839 and 42.312 and 38.770 and 25.122 and 15.422
3.90625e-6 M
  Fig. 1D dose-response, calcium response at Concentration (M): -0.931 and -0.509 and -0.147 and -0.531 and -0.497 and -0.558 and -1.252 and -0.171 and -0.163
7.8125e-6 M
  Fig. 1D dose-response, calcium response at Concentration (M): -3.944 and -3.544 and -1.450 and -3.087 and -3.091 and -2.761 and -3.250 and -1.367 and -4.322
1.5625e-5 M
  Fig. 1D dose-response, calcium response at Concentration (M): -14.193 and -2.564 and -12.325 and -15.196 and -3.788 and -10.098 and -11.561 and -10.981 and -6.540
3.125e-5 M
  Fig. 1D dose-response, calcium response at Concentration (M): -0.025 and -0.623 and -1.002 and -0.534 and -0.882 and -0.234 and -0.728 and -0.769 and -0.154
6.25e-5 M
  Fig. 1D dose-response, calcium response at Concentration (M): -11.462 and -7.089 and -18.181 and -19.274 and -11.464 and -5.994 and -9.636 and -15.344 and -11.752
0.00025 M
  Fig. 1D dose-response, calcium response at Concentration (M): -8.452 and -1.759 and -25.311 and -28.879 and -1.342 and -5.301 and -7.817 and -14.781 and -12.923
0.0005 M
  Fig. 1D dose-response, calcium response at Concentration (M): -2.705 and -17.232 and -3.163 and -5.843 and -6.495 and -10.762 and -7.609 and -4.103 and -11.388
0.001 M
  Fig. 1D dose-response, calcium response at Concentration (M): -9.560 and -7.574 and -9.738 and -14.721 and -4.551 and -7.600 and -11.650 and -7.050 and -8.173

## C[C@]12CCC(=O)C=C1CC[C@@H]1[C@@H]2[C@@H](O)C[C@@]2(C)[C@H]1CC[C@]2(O)C(=O)COC(=O)CCC(=O)O [Hydrocortisone 21-hemisuccinate]
Table S1
  pEC50: < 3.30

## C[C@@H]1C[C@H]2[C@@H]3C[C@@H](O)C4=CC(=O)C=C[C@]4(C)[C@@]3(F)[C@@H](O)C[C@]2(C)[C@@]1(O)C(=O)CO [6b-hydroxy Dexamethasone]
Concentration 9.76563e-7 M
  Fig. 1D dose-response, calcium mobilization response (individual replicate): -11.185 and -2.950 and -9.064 and -1.271 and -4.466
Concentration 1.95313e-6 M
  Fig. 1D dose-response, calcium mobilization response (individual replicate): -4.343 and -9.147 and -5.890 and -0.806 and -7.669
Concentration 3.90625e-6 M
  Fig. 1D dose-response, calcium mobilization response (individual replicate): -10.884 and -6.013 and -8.580 and -8.133 and -5.676
Concentration 7.8125e-6 M
  Fig. 1D dose-response, calcium mobilization response (individual replicate): -1.007 and -6.768 and -0.871 and -6.992 and -1.487
Concentration 1.5625e-5 M
  Fig. 1D dose-response, calcium mobilization response (individual replicate): -3.580 and -12.887 and -7.336 and -12.885 and -3.031
Concentration 3.125e-5 M
  Fig. 1D dose-response, calcium mobilization response (individual replicate): -6.945 and -4.243 and -10.704 and -6.397 and -13.033
Concentration 6.25e-5 M
  Fig. 1D dose-response, calcium mobilization response (individual replicate): -3.167 and -3.420 and -21.978 and -8.518 and -4.898
Concentration 0.00025 M
  Fig. 1D dose-response, calcium mobilization response (individual replicate): -19.291 and -10.466 and -0.309 and -10.053 and -7.780
Concentration 0.0005 M
  Fig. 1D dose-response, calcium mobilization response (individual replicate): -6.623 and -13.594 and -13.062 and -8.352 and -18.691
Concentration 0.001 M
  Fig. 1D dose-response, calcium mobilization response (individual replicate): -11.685 and -12.391 and -8.163 and -15.688 and -9.331

## CCC1(c2ccccc2)NC(=O)NC1=O (stereo not drawn) [Phenylethylhydantoin]
Concentration 4.88281e-7 M
  calcium mobilization response (Fig. 1D dose-response raw data): -36.084 and -46.830 and -25.168 and -25.995 and -41.232 and -40.854 and -21.141 and -50.216 and -36.724
Concentration 9.76563e-7 M
  calcium mobilization response (Fig. 1D dose-response raw data): -38.906 and -40.253 and -36.747 and -35.963 and -45.530 and -34.413 and -90.977 and -3.770 and -21.159
Concentration 1.95313e-6 M
  calcium mobilization response (Fig. 1D dose-response raw data): -39.850 and -47.267 and -41.649 and -23.282 and -47.762 and -57.722 and -64.532 and -47.904 and -16.330
Concentration 3.90625e-6 M
  calcium mobilization response (Fig. 1D dose-response raw data): -41.691 and -47.727 and -40.039 and -70.885 and -55.070 and -3.502 and -50.619 and -10.963 and -67.875
Concentration 7.8125e-6 M
  calcium mobilization response (Fig. 1D dose-response raw data): -54.750 and -48.340 and -51.910 and -49.343 and -57.168 and -48.489 and -88.910 and -37.952 and -28.139
Concentration 1.5625e-5 M
  calcium mobilization response (Fig. 1D dose-response raw data): -44.078 and -57.965 and -55.228 and -49.591 and -44.073 and -63.607 and -50.842 and -52.493 and -53.936
Concentration 3.125e-5 M
  calcium mobilization response (Fig. 1D dose-response raw data): -43.665 and -49.381 and -54.677 and -65.107 and -76.615 and -6.000 and -68.649 and -47.158 and -31.916
Concentration 6.25e-5 M
  calcium mobilization response (Fig. 1D dose-response raw data): -55.764 and -53.161 and -56.227 and -7.830 and -129.161 and -28.161 and -12.225 and -71.995 and -80.931
Concentration 0.00025 M
  calcium mobilization response (Fig. 1D dose-response raw data): -45.731 and -49.520 and -42.661 and -67.761 and -17.367 and -52.783 and -55.357 and -16.011 and -66.544
Concentration 0.0005 M
  calcium mobilization response (Fig. 1D dose-response raw data): -37.983 and -36.120 and -36.080 and -77.623 and -5.808 and -26.753 and -42.653 and -37.379 and -30.151
